Source: ChEMBL document CHEMBL3879901, “Substituted isoquinolin-1(2H)-ones, and methods of use thereof” (2012)

Assays:
[1] = molecular target: PI3K p110 beta/p85 alpha (Homo sapiens, UniProt P42338); experiment: Inhibition of N-terminal His6-tagged recombinant full-length human p110beta/untagged recombinant full length p85alpha expressed in baculovirus infected Sf21 cells using phosphatidylinositol as substrate in presence of gamma-32P-ATP after 5 mins by thin layer chromatographic method
[2] = molecular target: Phosphatidylinositol 4,5-bisphosphate 3-kinase catalytic subunit gamma isoform (Homo sapiens, UniProt P48736); experiment: Inhibition of recombinant human C-terminal His6-tagged p110gamma expressed in insect cells using phosphatidylinositol as substrate in presence of gamma-32P-ATP after 5 mins by thin layer chromatographic method
[3] = Antiproliferative activity against Balb/c mouse splenic B cells preincubated for 30 mins followed by LPS or F(ab')2 donkey anti-mouse IgM and recombinant mouse IL4 stimulation measured after 72 hrs by Alamar Blue reduction assay; type: functional, cell-based
[4] = molecular target: PI3-kinase p110-delta/p85-alpha (Homo sapiens, UniProt O00329); experiment: Inhibition of N-terminal His6-tagged recombinant full-length human p110delta/untagged recombinant full length p85alpha expressed in baculovirus infected Sf21 cells using phosphatidylinositol as substrate in presence of gamma-32P-ATP after 5 mins by thin layer chromatographic method
PI3-kinase p110-delta/p85-alpha, sequence (P27986 whole entry): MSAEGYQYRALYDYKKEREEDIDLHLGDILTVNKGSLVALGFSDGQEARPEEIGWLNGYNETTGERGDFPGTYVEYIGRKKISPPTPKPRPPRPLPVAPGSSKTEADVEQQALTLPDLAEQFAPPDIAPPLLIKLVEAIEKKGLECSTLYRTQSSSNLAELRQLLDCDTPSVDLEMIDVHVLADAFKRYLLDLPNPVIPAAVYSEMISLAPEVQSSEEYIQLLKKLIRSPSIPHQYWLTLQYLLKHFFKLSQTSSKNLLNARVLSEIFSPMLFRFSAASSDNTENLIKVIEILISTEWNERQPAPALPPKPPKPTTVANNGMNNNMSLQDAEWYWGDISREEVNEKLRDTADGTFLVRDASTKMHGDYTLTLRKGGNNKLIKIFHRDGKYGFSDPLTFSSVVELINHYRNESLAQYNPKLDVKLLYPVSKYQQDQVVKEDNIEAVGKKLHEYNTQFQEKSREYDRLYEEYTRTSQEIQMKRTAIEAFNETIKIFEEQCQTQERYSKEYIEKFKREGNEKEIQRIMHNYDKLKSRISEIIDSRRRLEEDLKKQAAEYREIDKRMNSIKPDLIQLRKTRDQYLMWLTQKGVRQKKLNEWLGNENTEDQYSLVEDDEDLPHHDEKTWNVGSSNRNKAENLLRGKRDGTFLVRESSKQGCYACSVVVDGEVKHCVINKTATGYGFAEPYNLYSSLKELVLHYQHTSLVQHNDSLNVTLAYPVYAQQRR
PI3-kinase p110-delta/p85-alpha, sequence (O00329 whole entry): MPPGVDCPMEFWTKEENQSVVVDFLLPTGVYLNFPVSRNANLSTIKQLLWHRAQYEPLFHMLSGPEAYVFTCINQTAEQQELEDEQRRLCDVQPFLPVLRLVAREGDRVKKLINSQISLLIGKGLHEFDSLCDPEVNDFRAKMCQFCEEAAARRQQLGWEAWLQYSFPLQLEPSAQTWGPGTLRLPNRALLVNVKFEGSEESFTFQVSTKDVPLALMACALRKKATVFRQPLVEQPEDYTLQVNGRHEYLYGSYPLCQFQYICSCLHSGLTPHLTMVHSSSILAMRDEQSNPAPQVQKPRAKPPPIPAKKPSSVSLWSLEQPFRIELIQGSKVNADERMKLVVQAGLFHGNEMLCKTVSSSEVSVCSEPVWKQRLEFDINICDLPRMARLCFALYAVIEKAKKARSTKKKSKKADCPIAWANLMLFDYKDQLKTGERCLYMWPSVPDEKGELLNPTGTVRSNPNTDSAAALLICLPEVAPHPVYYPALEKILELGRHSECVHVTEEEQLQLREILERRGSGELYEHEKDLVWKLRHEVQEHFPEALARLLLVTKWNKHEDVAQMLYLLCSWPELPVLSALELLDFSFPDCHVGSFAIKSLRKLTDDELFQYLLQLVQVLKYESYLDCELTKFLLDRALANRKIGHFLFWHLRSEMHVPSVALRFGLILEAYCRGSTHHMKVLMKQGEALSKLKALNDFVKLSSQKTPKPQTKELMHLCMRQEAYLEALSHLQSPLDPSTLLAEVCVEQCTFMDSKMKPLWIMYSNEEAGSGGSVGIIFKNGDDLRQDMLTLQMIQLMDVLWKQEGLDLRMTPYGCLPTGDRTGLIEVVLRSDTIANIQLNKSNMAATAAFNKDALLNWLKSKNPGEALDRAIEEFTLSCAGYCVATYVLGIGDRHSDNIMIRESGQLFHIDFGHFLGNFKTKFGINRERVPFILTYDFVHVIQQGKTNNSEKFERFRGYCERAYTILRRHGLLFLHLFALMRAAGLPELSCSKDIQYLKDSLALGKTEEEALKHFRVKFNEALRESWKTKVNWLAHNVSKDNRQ

PI3K p110 beta/p85 alpha, sequence (P27986 whole entry, canonical isoform): as the sequence (P27986 whole entry) above
PI3K p110 beta/p85 alpha, sequence (P42338 whole entry, canonical isoform): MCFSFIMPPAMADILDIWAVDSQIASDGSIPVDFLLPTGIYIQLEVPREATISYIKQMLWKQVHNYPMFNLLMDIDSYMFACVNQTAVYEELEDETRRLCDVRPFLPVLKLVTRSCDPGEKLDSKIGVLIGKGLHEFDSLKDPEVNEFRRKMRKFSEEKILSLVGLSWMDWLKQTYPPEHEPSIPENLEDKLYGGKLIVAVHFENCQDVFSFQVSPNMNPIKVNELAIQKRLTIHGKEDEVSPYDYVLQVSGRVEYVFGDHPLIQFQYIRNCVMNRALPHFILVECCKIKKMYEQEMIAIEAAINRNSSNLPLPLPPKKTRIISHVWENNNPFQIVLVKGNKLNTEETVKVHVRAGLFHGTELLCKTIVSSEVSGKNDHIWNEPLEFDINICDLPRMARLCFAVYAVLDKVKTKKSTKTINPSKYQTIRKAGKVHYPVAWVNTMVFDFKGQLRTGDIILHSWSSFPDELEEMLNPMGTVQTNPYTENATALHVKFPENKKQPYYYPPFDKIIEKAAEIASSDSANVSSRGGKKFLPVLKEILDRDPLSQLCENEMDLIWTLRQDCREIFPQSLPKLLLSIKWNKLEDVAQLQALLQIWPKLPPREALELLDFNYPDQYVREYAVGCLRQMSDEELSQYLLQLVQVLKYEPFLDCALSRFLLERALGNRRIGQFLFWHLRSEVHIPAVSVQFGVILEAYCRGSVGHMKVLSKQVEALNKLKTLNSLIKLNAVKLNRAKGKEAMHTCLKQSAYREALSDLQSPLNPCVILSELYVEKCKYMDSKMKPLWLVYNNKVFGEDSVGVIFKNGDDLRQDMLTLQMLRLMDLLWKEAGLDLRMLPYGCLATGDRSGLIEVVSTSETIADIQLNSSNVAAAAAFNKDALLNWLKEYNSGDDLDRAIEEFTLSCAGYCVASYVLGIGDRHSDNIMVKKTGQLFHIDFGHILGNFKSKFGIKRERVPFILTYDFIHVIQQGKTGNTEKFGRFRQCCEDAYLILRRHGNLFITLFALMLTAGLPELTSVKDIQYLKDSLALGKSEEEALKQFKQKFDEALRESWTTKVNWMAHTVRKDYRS
Phosphatidylinositol 4,5-bisphosphate 3-kinase catalytic subunit gamma isoform, sequence (P48736 whole entry, canonical isoform): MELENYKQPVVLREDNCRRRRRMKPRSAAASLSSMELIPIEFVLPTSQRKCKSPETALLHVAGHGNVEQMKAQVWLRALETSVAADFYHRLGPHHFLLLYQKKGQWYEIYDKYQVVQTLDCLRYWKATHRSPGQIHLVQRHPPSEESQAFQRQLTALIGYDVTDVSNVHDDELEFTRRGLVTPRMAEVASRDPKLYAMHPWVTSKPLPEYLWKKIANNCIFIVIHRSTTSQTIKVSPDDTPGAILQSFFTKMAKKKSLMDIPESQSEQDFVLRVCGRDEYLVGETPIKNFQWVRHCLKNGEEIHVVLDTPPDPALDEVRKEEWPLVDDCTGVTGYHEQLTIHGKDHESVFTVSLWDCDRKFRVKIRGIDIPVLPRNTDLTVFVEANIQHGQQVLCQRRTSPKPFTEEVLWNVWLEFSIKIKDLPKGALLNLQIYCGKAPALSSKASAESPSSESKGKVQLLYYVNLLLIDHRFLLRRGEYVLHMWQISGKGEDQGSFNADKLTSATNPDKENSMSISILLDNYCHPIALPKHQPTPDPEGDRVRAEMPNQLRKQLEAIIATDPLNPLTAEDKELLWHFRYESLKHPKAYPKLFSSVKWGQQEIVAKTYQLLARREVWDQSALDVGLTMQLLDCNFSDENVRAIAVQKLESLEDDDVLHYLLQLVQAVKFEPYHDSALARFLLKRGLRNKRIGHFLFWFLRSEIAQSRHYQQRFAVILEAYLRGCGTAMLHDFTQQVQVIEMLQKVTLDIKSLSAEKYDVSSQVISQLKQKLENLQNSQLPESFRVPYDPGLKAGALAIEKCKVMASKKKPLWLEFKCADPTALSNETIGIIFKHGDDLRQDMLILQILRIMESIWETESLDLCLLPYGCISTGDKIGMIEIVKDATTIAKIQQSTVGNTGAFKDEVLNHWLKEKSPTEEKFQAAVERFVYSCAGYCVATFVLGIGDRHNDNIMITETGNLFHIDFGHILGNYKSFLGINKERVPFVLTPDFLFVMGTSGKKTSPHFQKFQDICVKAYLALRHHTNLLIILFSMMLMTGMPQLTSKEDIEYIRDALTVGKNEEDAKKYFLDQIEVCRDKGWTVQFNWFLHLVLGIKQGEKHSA

Row | SMILES | IC50 [1] | IC50 [2] | EC50 [3] | IC50 [4]
1 | Cc1cccc2cc([C@H](C)Nc3ncnc4[nH]cc(F)c34)n(-c3ccccc3)c(=O)c12 | < 100 nM | < 100 nM | < 100 nM | < 100 nM
2 | Cc1cccc2cc([C@H](C)Nc3ncnc4[nH]cc(Br)c34)n(C3CC3)c(=O)c12 | < 100 nM | < 100 nM | – | < 100 nM
3 | Cc1cccc2cc([C@H](C)Nc3ncnc4[nH]nc(C#N)c34)n(-c3ccccc3)c(=O)c12 | < 100 nM | < 100 nM | < 100 nM | < 100 nM
4 | Cc1cccc2cc([C@H](C)Nc3ncnc4[nH]cc(C#N)c34)n(-c3ccccc3)c(=O)c12 | < 100 nM | < 100 nM | – | < 100 nM
5 | Cc1cccc2cc([C@H](C)Nc3ncnc4[nH]nc(C(N)=O)c34)n(-c3ccccc3)c(=O)c12 | < 100 nM | < 100 nM | < 100 nM | < 100 nM
6 | Cc1cccc2cc([C@H](C)Nc3ncnc4[nH]cc(C(N)=O)c34)n(-c3ccccc3)c(=O)c12 | < 100 nM | < 100 nM | – | < 100 nM
7 | Cc1cccc2cc([C@H](C)Nc3ncnc4[nH]ccc34)n(C3CC3)c(=O)c12 | < 100 nM | < 100 nM | – | < 100 nM
8 | Cc1ccncc1-n1c(Cn2nc(I)c3c(N)ncnc32)cc2cccc(C)c2c1=O | > 10000 nM | < 1000 nM | < 1000 nM | < 100 nM
9 | Cc1cccc2cc([C@H](C)Nc3ncnc4[nH]cc(Br)c34)n(-c3ccccc3)c(=O)c12 | < 100 nM | < 100 nM | < 100 nM | < 100 nM
10 | Cc1cccc2cc([C@H](C)Nc3ncnc4[nH]cc(F)c34)n(C3CC3)c(=O)c12 | < 100 nM | < 100 nM | < 100 nM | < 100 nM
11 | Cc1cccc2cc([C@H](C)Nc3ncnc4[nH]cnc34)n(C3CC3)c(=O)c12 | < 100 nM | < 100 nM | < 100 nM | < 100 nM
12 | Cc1cccc2cc([C@H](C)Nc3ncnc4[nH]cc(Cl)c34)n(-c3ccccc3)c(=O)c12 | < 100 nM | < 100 nM | – | < 100 nM
13 | Cc1cccc2cc([C@H](C)Nc3ncnc4[nH]cc(C(N)=O)c34)n(C3CC3)c(=O)c12 | < 100 nM | < 100 nM | – | < 100 nM
14 | Cc1cccc2cc([C@H](C)Nc3ncnc4[nH]cc(C#N)c34)n(C3CC3)c(=O)c12 | < 100 nM | < 100 nM | < 100 nM | < 100 nM
15 | C[C@H](Nc1ncnc2[nH]cnc12)c1cc2cccc(Cl)c2c(=O)n1C1CC1 | < 100 nM | < 100 nM | < 100 nM | < 100 nM
16 | CC(=O)Nc1nc2ccc(-c3nn(Cc4cc5cccc(C)c5c(=O)n4-c4ccccc4C)c4ncnc(N)c34)cc2[nH]1 | – | < 100 nM | < 100 nM | < 100 nM
17 | CC(=O)Nc1nc2cc(-c3nn(Cc4cc5cccc(C)c5c(=O)n4-c4ccccc4)c4ncnc(N)c34)ccc2o1 | < 100 nM | < 100 nM | < 100 nM | < 100 nM
18 | Cc1cccc2cc([C@H](C)Nc3ncnc4[nH]nc(C(N)=O)c34)n(C3CC3)c(=O)c12 | < 100 nM | < 100 nM | – | < 100 nM
19 | Cc1cccc2cc(Cn3nc(I)c4c(N)ncnc43)n(-c3ccccc3Cl)c(=O)c12 | > 10000 nM | < 1000 nM | < 1000 nM | < 100 nM
20 | Cc1ccccc1-n1c(Cn2nc(-c3ccc4nc(N)oc4c3)c3c(N)ncnc32)cc2cccc(C)c2c1=O | – | < 100 nM | < 100 nM | < 100 nM
21 | Cc1ccccc1-n1c(Cn2nc(CF)c3c(N)ncnc32)cc2cccc(C)c2c1=O | – | < 100 nM | < 100 nM | < 100 nM
